Test results published in US20100016546A1, “Therapeutic Peptide-Polysaccharide Biomaterials” (priority 2005, published 2010).
Like-named read-outs stand apart in the source and are kept apart here. No end group written: not given here.

Assays:
[1] = test system: E. coli; details: free peptide; cited from earlier work
[2] = test system: E. coli BL21(DE3); details: cited from earlier work
[3] = test system: E. coli BL21(DE3); assay type: cell-based; details: for Measured Potency: Free Peptide (LC90) / Measured Potency: Peptide/Agarose Conjugate (LC90): E. coli (BL21 (DE3)); for Measured Potency: Peptide/Agarose Conjugate (LC90): effective peptide concentration
Procedure: Overall, antimicrobial activity can be evaluated by incubating small cultures of E. coli (BL21) at 37° C. with agitation (e.g., ˜3 to ˜5 hrs) in minimal media in the presence/absence of varied amounts of peptide conjugate or free peptide. Aliquots can be collected at predetermined time points to determine the cell density. One OD600 of the solution=2×10^9 CFU/ml. Correlating changes in cell density between cultures incubated with varied amounts of conjugate and cultures grown in the absence of conjugates can provide a means of evaluating the antimicrobial potency of the varied constructs. Assays such as this one are known to be used in evaluating the potency of antimicrobial peptidomimetics and biomaterials.
In one embodiment, the antimicrobial activity of the free peptides and conjugates have been assayed against E. coli BL21(DE3) cultures. In this assay, the bacteria (at ˜1×10^6 CFU/ml) are incubated for 2 hours at 37° C. in 10 mM phosphate (e.g., Na2HPO4) buffer (pH ˜7.5) with varied concentrations of peptide or peptide-conjugate. After this time, 20 μl aliquots of each culture and serial dilutions of the culture are plated onto LB agar plates and incubated over night at 37° C. The number of colonies on these plates is then counted and the survival percentage is determined relative to a control culture. The example contained no peptide.
In another embodiment, a stock solution containing 1 mg of peptide per ml solution may be prepared. Using the stock peptide (1 mg/ml) solution, assays may be prepared (volume of ˜100 μl) at 1 μg/ml, 10 μg/ml, and 100 μg/ml of free peptide (e.g., HBD-332-45). In the control sample, 10 μl of 100 mM phosphate buffer, 80 μl of sterile water and 10 μl of cell cultures may be combined and incubated without peptide for two hours at 37° C. After two hours incubation, 20 μl aliquots of the above solutions, and 1:10, and 1:100 dilutions of each may be plated in LB-agar plates and incubated over night at 37° C.
In another embodiment, peptide conjugate (e.g., HBD-332-45-agarose) with a loading of 3.82 μg of peptide/1 μl of resin may also be assayed at effective peptide concentrations of 1 μg/ml, 10 μg/ml, 25 μg/ml, 50 μg/ml, 75 μg/ml and 100 μg/ml. For example, an effective peptide concentration of 100 μg/ml of suspension may be prepared by using 52.2 μl of a 50% suspension of 3.82 μg/μl of peptide suspension (100 μg×[1 μl/3.82 μg]=26.1 μl). Samples containing varying concentrations of peptide conjugate may be combined with 10 μl of 100 mM phosphate buffer having a pH of about 7.5, 10 μl of cell cultures (˜1×10^7 CFU/ml), and the required volume of sterile water to bring a total volume of 100 μl. This combination may be incubated at 37° C. with agitation for two hours. After incubation, 20 μl of each cell culture and 1:10 and 1:100 dilutions of each cell culture may be plated on LB-agar plates and incubated at 37° C. overnight. Similar protocols may be used to evaluate the antimicrobial activity of the HBD-336-45 peptide and corresponding conjugate. […]
The results of the antimicrobial assay using free HBD-332-45 and agarose conjugate can be seen in FIG. 17. Antimicrobial activity of free HBD-332-45 is given on the left and that of the HBD-332-45 peptide-conjugate is shown on the right. E. coli at 1×10^6 CFU/ml were incubated with varied peptide concentrations (free peptide and peptide conjugate). Serial dilutions (0.1× and 0.01×) of cell cultures in all plates are shown across the figure.

## KSSTRGRKSSRRKK-OH [HBD-332-45, KSSTRGRKSSRRKK]
[1]
  antimicrobial activity against E. coli: 1 ± 0.1 mg/mL
[2]
  Reported Potency: Free Peptide (LC90): ~1 µg/mL
[3]; Escherichia coli, 2 h, pH 7.5
  Measured Potency: Peptide/Agarose Conjugate (LC50): ~10 μg/ml (LC50)
[3]; free peptide, 1 μg/ml, E. coli 1×10^6 CFU/ml, 2 h
  bacteria killed: ~93%
[3]; free peptide, 10 μg/ml
  microbicidal efficiency: > 99%
[3]; free peptide, 100 μg/ml
  microbicidal efficiency: > 99%
[3]; free peptide
  Measured Potency: Free Peptide (LC90): 0.20 µg/mL
[3]
  Measured Potency: Peptide/Agarose Conjugate (LC90): ~75 µg/mL

## RGRKSSRRKK-OH [HBD-336-45, RGRKSSRRKK]
[2]
  Reported Potency: Free Peptide (LC90): ~4 µg/mL
[3]; free peptide, 1 μg/ml
  reduction in the number of colonies: ~67%
[3]; free peptide, 10 μg/ml
  reduction in the number of colonies: ~97%
[3]; free peptide
  Measured Potency: Free Peptide (LC90): 2.23 µg/mL
[3]
  Measured Potency: Peptide/Agarose Conjugate (LC90): >100 μg/m μg/ml

## RGRRSSRRKK-NH2 [HBD-336-45(Rev2), RGRRSSRRKK-NH2]
[3]; free peptide
  Measured Potency: Free Peptide (LC90): 0.15 µg/mL
[3]
  Measured Potency: Peptide/Agarose Conjugate (LC90): ~26 µg/mL
